Assay results taken from patent EP3928777A1, “4,5-DIHYDRO-OXAZOL-2-YLAMINE DERIVATIVES FOR USE IN THE PREVENTION OR TREATMENT OF ALCOHOL USE DISORDER” (Instytut Biologii Doswiadczalnej im. Marcelego Nenckiego …, priority 2020, dated 2021).

Legend:
[1] = tested on: mice; assay: Motivation to drink alcohol: progressive nose-poke test in IntelliCages; type: in vivo; settings: 10 mg/kg bw intraperitoneal, 20% alcohol, attempts measured over 20 hours, 3 tests, Fig. 5
Procedure: The effect of RO5256390 administration on motivation to drink alcohol was also assessed experimentally. In this experiment a new group of animals was used, these were 13 animals that underwent a three-month adaptive training to drink alcohol (20%) in IntelliCages. The motivation to drink alcohol was then assessed for each animal by conducting 3 tests. For the purposes of the test, the IntelliCage was designed in such a way that access to alcohol for a given animal was only possible, with a certain number of so-called "nose-pokes", meaning cutting the laser beam with the snout when trying to reach the alcohol bottle. In order to drink alcohol, the animal must first cut the beam twice, then 4, 8, 12, 16 times etc. After the required number of nose-pokes are made, the alcohol-blocking door opens. The more attempts to get into the alcohol bottle and the greater the number of beam intersection events achieved, the greater the motivation to drink alcohol. Each test started when half of the water bottles was replaced with 20% alcohol bottles. During the next 20 hours the number of drinking attempts was measured for each animal. After 3 series of motivational tests, which were carried out at weekly intervals, the animals were divided into two experimental groups. […]

[2] = tested on: C57BL/6 mouse; assay: Amount of alcohol (20%) consumed by alcohol-trained mice in IntelliCages after intraperitoneal injection; type: in vivo; settings: versus vehicle control group
Procedure: The study involved 30 C57BL/6 mouse subjects that had undergone a two-month, earlier adaptive training to drink alcohol (20%) in IntelliCages (Fig. 1), under typical living conditions (temperature: 21-23°C, humidity 50-60%, 12/12 light-dark cycle). During the adaptive training, the mice had constant access to food and water except for: • 1. 25 days, during which, 2 hours after the beginning of the dark phase, all water bottles were replaced for 3 hours with bottles containing 20% alcohol (no access to clean water at all). • 2. 15 days, during which, 2 hours after the beginning of the dark phase, half of the water bottles were replaced for 3 hours with bottles containing 20% alcohol (possibility to choose water or alcohol). […]
During the adaptive training, the amount of alcohol consumed was recorded for each animal separately. […] The degree of preference for drinking alcohol was determined according to the following criteria: • high-drinkers: on average from 100 to 200 licks of alcohol, with a choice between water and alcohol (3 hour session); • medium-drinkers: on average from 50 to 100 licks of alcohol, with a choice between water and alcohol; (3 hour session); • low-drinkers: on average from 0 to 50 licks of alcohol, with a choice between water and alcohol; (3 hour session); […]

[3] = tested on: cocaine-dependent or binge eating animals; settings: cited from earlier work
[4] = tested on: animal models; assay: Toxicity in animal models; type: in vivo
Procedure: (§1) The compound of Formula II is additionally easy to prepare and formulate (well soluble in a solution of 5% ethanol and 10% collyphor for an exemplary dose of 10 mg/kg body weight in an intraperitoneal administration), it appears to be non-toxic in animal models.

[5] = Solubility in the injection vehicle; type: physicochemical; settings: solution of 5% ethanol and 10% collyphor, for an exemplary dose of 10 mg/kg body weight, intraperitoneal administration
Procedure: as §1

CC[C@@H](C[C@H]1COC(N)=N1)c1ccccc1 [RO5256390]
motivation to drink alcohol (number of alcohol drinking attempts) [1]: reduces the motivation to drink alcohol
amount of consumed alcohol during 20 hours after injection ([2]; 10 mg/kg bw intraperitoneal, 20% alcohol, Fig. 3): statistically significant lower amount of alcohol
amount of consumed alcohol in the 20 hours post injection after a 10 day abstinence period ([2]; access to alcohol blocked for 10 days, treated as previously (10 mg/kg bw i.p.), Fig. 4): statistically significantly lower amount of alcohol
suppressing compulsive behavior [3]: effective in suppressing compulsive behavior
toxicity [4]: non-toxic
solubility [5]: well soluble
